Results taken from patent US20100099756A1, “USES OF INCENSOLE, INCENSOLE ACETATE AND DERIVATIVES THEREOF” (YISSUM RESEARCH DEVELOPMENT COMPANY OF THE HEBREW …, priority 2006, published 2010).
Values belong to the molecule of their own block, whether it stands above or below them.

Experiments:
Format in all cases: cell-based
mouse TRPV3-YFP [1] = target: T1, mouse TRPV3-YFP (Mus musculus, UniProt Q8K424); assay: Calcium imaging of HEK293 cells expressing mouse TRPV3-YFP; settings: IA 100 μM; 2-APB positive control
T1 construct: expressed in transfected cells
T1 sequence (Q8K424 1-791): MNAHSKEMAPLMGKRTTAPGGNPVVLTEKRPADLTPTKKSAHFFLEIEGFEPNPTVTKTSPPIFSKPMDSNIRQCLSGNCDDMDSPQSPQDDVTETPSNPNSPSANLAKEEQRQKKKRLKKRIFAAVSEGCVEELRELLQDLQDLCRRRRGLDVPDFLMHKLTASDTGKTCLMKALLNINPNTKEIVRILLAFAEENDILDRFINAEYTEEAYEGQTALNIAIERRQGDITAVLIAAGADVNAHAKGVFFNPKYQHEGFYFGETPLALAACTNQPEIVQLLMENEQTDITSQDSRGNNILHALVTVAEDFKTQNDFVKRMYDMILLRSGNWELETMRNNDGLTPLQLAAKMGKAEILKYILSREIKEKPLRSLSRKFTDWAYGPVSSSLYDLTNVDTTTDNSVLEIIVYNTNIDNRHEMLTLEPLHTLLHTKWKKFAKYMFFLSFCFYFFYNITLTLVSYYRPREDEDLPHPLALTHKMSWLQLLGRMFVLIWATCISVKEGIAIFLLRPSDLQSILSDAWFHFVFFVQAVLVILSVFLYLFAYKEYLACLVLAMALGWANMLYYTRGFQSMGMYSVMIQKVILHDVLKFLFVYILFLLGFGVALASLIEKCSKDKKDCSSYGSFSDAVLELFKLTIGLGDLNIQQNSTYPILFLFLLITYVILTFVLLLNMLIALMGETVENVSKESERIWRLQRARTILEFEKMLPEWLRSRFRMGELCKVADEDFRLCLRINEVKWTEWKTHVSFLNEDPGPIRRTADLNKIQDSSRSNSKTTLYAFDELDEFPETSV
Protocol: (§1) All error bars indicate SEM; p values in all subfigures but c represent analysis with one-way ANOVA Bonferroni's post hoc.
TRPV3-YFP [O'dell, D. K., Rimmerman, N., Pickens, S. R. & Walker J. M. Fatty acyl amides of endogenous tetrahydroisoquinolines are active at the recombinant human TRPV1 receptor. […] Med. Chem. 15, 6164-6169 (2007)], TRPV4 and mock-transfected cell lines were cultured in DMEM 1× with L-glutamine (Mediatech, Inc. Herndon, Va.), containing 1% penicillin-streptomycin (Invitrogen, Carlsbad, Calif.) and 10% foetal bovine serum.
(§2) Calcium imaging of HEK 293 cells. TRPV1, TRPV3, and TRPV4 expressing HEK293 cells were plated 24-48 h before imaging in 96 well plates, loaded with 3 μM Fura-2 AM and imaged as previously described [O'dell, D. K., Rimmerman, N., Pickens, S. R. & Walker J. M. Fatty acyl amides of endogenous tetrahydroisoquinolines are active at the recombinant human TRPV1 receptor. […] Med. Chem. 15, 6164-6169 (2007)].
(§3) For single cell calcium imaging, HEK293-rat TRPV2 and HEK293-mouse TRPV3-YFP expressing cells were plated on collagen-coated glass cover slips. Cells were loaded for 60 min with 3 μM Fura-2 AM.
Data analysis of calcium imaging data. Analysis of calcium imaging data was done using a non-linear regression curve fit (Graphpad 4 Prism, San Diego, Calif.). t tests and one way ANOVA were calculated using SPSS (Chicago, Ill.). In the keratinocyte experiments, drug-induced response for each cell was taken as the maximal post-drug measurements over time minus the average of the last 5 pre-drug measurements. Averaged drug responses over 30 randomly selected cells per coverslip were analyzed with two-tailed unpaired t tests.

rat-TRPV2 = target: T2, rat-TRPV2 (Rattus norvegicus, UniProt Q9WUD2); assay: Calcium imaging of HEK293 cells transiently transfected with rat-TRPV2; settings: IA 100 μM
T2 construct: expressed in transfected cells; host or cells: HEK293 (transient, lipofectamine)
Excerpt: as §1
(§4) HEK293 cells were transiently transfected with a rat TRPV2 plasmid using lipofectamine reagent (Invitrogen, Carlsbad, Calif.) according to manufacturer's protocol. They were then maintained in Dulbecco's modified Eagle Medium/10% fetal calf serum supplemented with Penicillin, Streptomycin, and L-glutamine. Primary keratinocytes from TRPV3-deficient and TRPV3+/+ mouse pups (day 1-4) were harvested and cultured as described previously [Chung, M. K., Lee, H., Mizuno, A., Suzuki, M. & Caterina, M. J. TRPV3 and TRPV4 mediate warmth-evoked currents in primary mouse keratinocytes. J. Biol. Chem. 279, 21569-21575 (2004)].
as §3

mouse TRPV3-YFP [2] = assay: Whole-cell voltage-clamp, TRPV3-YFP expressing HEK293 cells; settings: IA 200 μM; 2-APB 100 μM; cells not expressing TRPV3
Protocol: (§5) Electrophysiological recording. Currents were recorded using whole-cell voltage-clamp. Pipettes were pulled from microcapillary glass (A-M Systems). A coverslip containing cells was transferred to a 300 μL chamber that was constantly perfused (1-2 mL/min) with external solution. Voltage protocols were generated and data were digitized and recorded using Pulse (HEKA Elektronik) software in conjunction with an Axopatch 200A amplifier (Axon Instruments), and the data analyzed using an in-house Visual Basic (Microsoft) analysis program.
(§6) The external solution contained (in mM): 120 NaCl, 5 KCl, 1 MgCl2, 2 CaCl2, 10 Glucose and 20 HEPES, pH 7.4 with NaOH. The measured charge (pC) was defined as the charge elicited between -85 and -45 mV by a ramping voltage stimulus (−85 mV to +35 mV, 0.54 mV/msec; holding potential -55 mV). Currents were sampled at 5 kHz. Experimental and control cells were alternated whenever possible. Control values were obtained from adjacent cells with no detectable YFP fluorescence, presumed to be non-TRPV3-expressing.

mouse TRPV3-YFP [3] = target: T1, mouse TRPV3-YFP; assay: as above; settings: IA 200 μM; 2-APB 100 μM; charge −85 to −45 mV
Protocol: as §5, §6

rat TRPV4 = target: T3, rat TRPV4 (Rattus norvegicus, UniProt Q9ERZ8); assay: Calcium imaging of TRPV4 transfected HEK293 cells; settings: IA 100 μM, compared to vehicle
T3 construct: expressed in transfected cells; host or cells: HEK293 cell line
Protocol: as §1
TRPV3-YFP [O'dell, D. K., Rimmerman, N., Pickens, S. R. & Walker J. M. Fatty acyl amides of endogenous tetrahydroisoquinolines are active at the recombinant human TRPV1 receptor. Bioorg. Med. Chem. 15, 6164-6169 (2007)], TRPV4 and mock-transfected cell lines were cultured in DMEM 1× with L-glutamine (Mediatech, Inc. Herndon, Va.), containing 1% penicillin-streptomycin (Invitrogen, Carlsbad, Calif.) and 10% foetal bovine serum.
Calcium imaging of HEK 293 cells. TRPV1, TRPV3, and TRPV4 expressing HEK293 cells were plated 24-48 h before imaging in 96 well plates, loaded with 3 μM Fura-2 AM and imaged as previously described [O'dell, D. K., Rimmerman, N., Pickens, S. R. & Walker J. M. Fatty acyl amides of endogenous tetrahydroisoquinolines are active at the recombinant human TRPV1 receptor. Bioorg. Med. Chem. 15, 6164-6169 (2007)].

TRPV3 = target: T4, TRPV3 (Mus musculus, UniProt Q8K424); assay: Calcium imaging of TRPV3+/+ and TRPV3−/− primary keratinocytes; parameters: endogenous in cells; host or cells: primary keratinocytes from TRPV3+/+ mouse pups (day 1-4); TRPV3-/- cells as control; settings: IA 500 μM; camphor 10 mM
T4 sequence (Q8K424 1-791): T1 sequence (Q8K424 1-791)
Excerpt: as §4
Calcium imaging of TRPV3^+/+ and TRPV3^−/− keratinocytes. Primary keratinocytes from TRPV3-deficient and WT mouse pups (day 1-4) were harvested and cultured as described [Chung, M. K., Lee, H., Mizuno, A., Suzuki, M. & Caterina, M. J. TRPV3 and TRPV4 mediate warmth-evoked currents in primary mouse keratinocytes. J. Biol. Chem. 279, 21569-21575 (2004)].
Cells were plated on glass coverslips (10^5/cm^2) and incubated for 48-60 h, then loaded with fura-2 AM (20 μM, 0.04% pleuronic acid, 32° C. for 1 h) in imaging buffer containing (in mM): 130 NaCl, 2.5 CaCl2, 0.6 MgCl2, 10 HEPES, 1.2 NaHCO3, 10 glucose, pH 7.45. Ratiometric Ca^2+ imaging was performed as previously described [O'dell, D. K., Rimmerman, N., Pickens, S. R. & Walker J. M. Fatty acyl amides of endogenous tetrahydroisoquinolines are active at the recombinant human TRPV1 receptor. Bioorg. Med. Chem. 15, 6164-6169 (2007)]. Drug was added to the bath following a period of baseline recording. Calcium measurements were made from 30 randomly selected cells per coverslip.
Data analysis of calcium imaging data. Analysis of calcium imaging data was done using a non-linear regression curve fit (Graphpad 4 Prism, San Diego, Calif.). t tests and one way ANOVA were calculated using SPSS (Chicago, Ill.). […] Averaged drug responses over 30 randomly selected cells per coverslip were analyzed with two-tailed unpaired t tests.

TRPV1 = TRPV1 (Homo sapiens, UniProt Q8NER1); assay: Calcium imaging of TRPV1-transfected HEK293 cells; settings: IA 100 μM, compared to vehicle
Protocol: as §1
Human HEK 293 cells stably expressing TRPV1 were a kind gift from Merck Research Laboratories (Whitehouse Station, N.J.). Cells were cultured in minimal essential medium, Eagle, modified with non-essential amino acids, 1 mM sodium pyruvate, 2 mM L-glutamine and 1.5 g/L sodium bicarbonate (ATCC, Mabassas, Va.), containing 1% Penicillin-streptomycin, and 10% foetal bovine serum. Cells were passaged three times a week using Trypsin-EDTA 1× (Invitrogen, Carlsbad, Calif.) and grown under 5% CO2 at 37° C.
as §2

IκBα degradation = IκBα degradation in TNFα-stimulated HeLa cells (Western blot); settings: HeLa cells pre-incubated 2 hrs, then TNFα 20 ng/ml for 20 minutes
Protocol: HeLa cells were pre-incubated with IA (FIG. 1A) or IN (FIG. 1B) at the indicated concentrations for 2 hrs prior to 20 minutes exposure to TNFα (20 ng/ml). At least three more experiments were repeated with highest indicated dose, resulting similarly.
IκBα Degradation. HeLa cells were pre-incubated with IA (50 μg/ml, dissolved in ethanol) for 2 hrs, and then stimulated for 20 minutes with TNFα (20 ng/ml, Emeryville, Calif., USA). After removing the slides from plates for immonostaining (see below), proteins were extracted from remaining cells in the plates. Proteins were extracted from cells in NP-40 lysis buffer. Total protein concentration was determined using the Bradford method. Lysates were then analyzed either by Western blotting (WB).
Western Blot (WB). Following separation by SDS-PAGE, proteins were blotted to a polyvinylidene difluoride (PVDF) membrane (Millipore). The membrane was blocked in 5% (w/v) milk powder and then incubated in TBST containing the primary antibody and 2% (w/v) milk powder. All phospho-specific antibodies were purchased from Cell signaling Inc. αIκBa, αp65 and αCOX2 antibodies from Santa Cruz Inc. (California, USA). After binding of an appropriate secondary antibody coupled to horseradish peroxidase, proteins were visualized by enhanced chemiluminiscence according to the instructions of the manufacturer (Amersham Lifescience).

Chain of TRPV1 (Q8NER1 whole entry): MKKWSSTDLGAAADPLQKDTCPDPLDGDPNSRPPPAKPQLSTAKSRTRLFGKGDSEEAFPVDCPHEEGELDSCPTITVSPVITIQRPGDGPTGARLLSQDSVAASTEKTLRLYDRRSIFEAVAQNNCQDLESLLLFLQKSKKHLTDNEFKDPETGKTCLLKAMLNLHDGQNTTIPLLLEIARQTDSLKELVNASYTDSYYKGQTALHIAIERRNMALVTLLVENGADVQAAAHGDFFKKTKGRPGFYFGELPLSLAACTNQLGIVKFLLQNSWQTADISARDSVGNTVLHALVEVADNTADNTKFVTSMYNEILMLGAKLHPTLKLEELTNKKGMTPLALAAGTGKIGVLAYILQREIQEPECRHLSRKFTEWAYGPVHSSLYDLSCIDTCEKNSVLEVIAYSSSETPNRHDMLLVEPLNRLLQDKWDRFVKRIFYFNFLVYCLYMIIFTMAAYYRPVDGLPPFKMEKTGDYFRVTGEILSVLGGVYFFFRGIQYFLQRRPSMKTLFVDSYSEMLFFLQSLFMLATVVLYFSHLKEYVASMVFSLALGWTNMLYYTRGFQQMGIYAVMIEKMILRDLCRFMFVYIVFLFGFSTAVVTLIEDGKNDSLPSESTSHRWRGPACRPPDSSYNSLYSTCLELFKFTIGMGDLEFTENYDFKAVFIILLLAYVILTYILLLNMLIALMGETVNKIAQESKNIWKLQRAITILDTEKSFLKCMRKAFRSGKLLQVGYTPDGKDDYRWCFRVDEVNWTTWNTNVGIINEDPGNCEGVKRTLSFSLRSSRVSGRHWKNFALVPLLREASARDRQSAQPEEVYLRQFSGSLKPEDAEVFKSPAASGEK
T3 sequence (Q9ERZ8 whole entry): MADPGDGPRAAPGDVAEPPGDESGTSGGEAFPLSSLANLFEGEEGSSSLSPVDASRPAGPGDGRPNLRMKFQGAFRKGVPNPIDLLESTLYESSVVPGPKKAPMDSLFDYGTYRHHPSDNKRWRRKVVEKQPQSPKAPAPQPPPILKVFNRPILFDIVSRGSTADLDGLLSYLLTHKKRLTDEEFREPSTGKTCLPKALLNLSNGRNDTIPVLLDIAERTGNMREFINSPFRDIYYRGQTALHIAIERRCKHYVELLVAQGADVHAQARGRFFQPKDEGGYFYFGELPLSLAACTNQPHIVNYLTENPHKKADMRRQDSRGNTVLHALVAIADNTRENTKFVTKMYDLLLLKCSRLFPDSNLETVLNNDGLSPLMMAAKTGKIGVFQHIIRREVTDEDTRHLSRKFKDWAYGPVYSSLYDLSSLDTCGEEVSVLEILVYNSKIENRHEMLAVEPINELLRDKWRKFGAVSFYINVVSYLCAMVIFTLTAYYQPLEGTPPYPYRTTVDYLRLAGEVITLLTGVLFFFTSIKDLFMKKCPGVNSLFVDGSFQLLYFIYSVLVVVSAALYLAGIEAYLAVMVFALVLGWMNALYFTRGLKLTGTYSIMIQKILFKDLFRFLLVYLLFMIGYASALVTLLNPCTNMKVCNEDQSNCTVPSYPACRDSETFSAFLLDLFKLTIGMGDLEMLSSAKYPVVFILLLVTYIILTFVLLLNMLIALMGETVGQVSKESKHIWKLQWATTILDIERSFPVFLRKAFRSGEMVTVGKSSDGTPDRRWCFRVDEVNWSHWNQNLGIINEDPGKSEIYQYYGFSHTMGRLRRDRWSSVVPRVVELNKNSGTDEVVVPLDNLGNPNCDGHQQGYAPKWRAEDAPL
T2 sequence (Q9WUD2 whole entry): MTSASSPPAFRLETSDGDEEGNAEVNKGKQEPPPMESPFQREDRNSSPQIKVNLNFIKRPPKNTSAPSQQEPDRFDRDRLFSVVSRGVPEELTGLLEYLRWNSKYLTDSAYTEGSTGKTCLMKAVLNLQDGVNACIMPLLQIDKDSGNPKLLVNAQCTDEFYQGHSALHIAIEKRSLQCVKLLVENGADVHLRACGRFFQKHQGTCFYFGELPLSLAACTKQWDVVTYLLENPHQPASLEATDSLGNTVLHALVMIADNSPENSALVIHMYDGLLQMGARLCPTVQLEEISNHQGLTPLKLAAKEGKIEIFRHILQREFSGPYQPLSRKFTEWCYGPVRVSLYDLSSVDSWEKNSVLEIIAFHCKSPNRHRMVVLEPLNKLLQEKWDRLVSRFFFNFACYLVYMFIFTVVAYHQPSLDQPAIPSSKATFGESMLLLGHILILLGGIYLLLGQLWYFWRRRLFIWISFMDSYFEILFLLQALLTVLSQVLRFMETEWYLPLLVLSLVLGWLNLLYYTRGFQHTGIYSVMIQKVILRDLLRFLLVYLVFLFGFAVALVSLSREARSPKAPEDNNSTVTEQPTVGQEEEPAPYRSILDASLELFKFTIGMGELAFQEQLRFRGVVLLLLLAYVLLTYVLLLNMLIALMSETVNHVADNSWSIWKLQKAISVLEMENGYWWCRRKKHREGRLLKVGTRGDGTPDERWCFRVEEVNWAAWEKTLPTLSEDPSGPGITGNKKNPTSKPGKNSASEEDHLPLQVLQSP

SMILES: CCCCCCCCCC(=O)O[C@@H]1[C@@H](C)[C@@]2(O)[C@@H](C=C(CO)C[C@@]3(O)C(=O)C(C)=C[C@@H]23)[C@@H]2C(C)(C)[C@]12OC(=O)CCCCCCCCC [4αPDD, reference compound]
calcium influx in TRPV4 transfected HEK293 cells (rat TRPV4): robust calcium increase

SMILES: C/C1=C\CC2(C(C)C)CCC(C)(O2)C(O)CC/C(C)=C/CC1 (centres unmarked) [IN, incensole]
IκBα degradation (IκBα degradation): inhibited IκBα degradation in a dose dependent manner

The next lines start with results.

calcium influx vs vehicle (mouse TRPV3-YFP [1]): evoked robust calcium increases
calcium influx in rat-TRPV2 transfected HEK293 cells (rat-TRPV2): robustly increased calcium
current activation in TRPV3(+) HEK293 cells (mouse TRPV3-YFP [3]): activates currents
SMILES: NCCOB(c1ccccc1)c1ccccc1 [2-APB, 2-aminoethyl diphenylborinate, reference compound]
current activation in TRPV3(−) control cells (mouse TRPV3-YFP [2]): not in TRPV3(−) cells

calcium influx in primary keratinocytes from WT mice (TRPV3): showed a similar effect
SMILES: CC12CCC(CC1=O)C2(C)C (centres unmarked) [Camphor, camphor, reference compound]

calcium influx in TRPV1-transfected HEK293 cells (TRPV1): robust calcium increase
SMILES: COc1cc(CNC(=O)CCCC/C=C/C(C)C)ccc1O [Capsaicin, reference compound]
